Source: patent publication US10272053B2, “Nanoparticle targeted drug delivery to the lungs using extra-testicular sertoli cells” (UNIVERSITY OF SOUTH FLORIDA, priority 2008, dated 2019)

Test: Quantification of curcumin in lungs of injected asthmatic mice (UV absorbance)
Type: in vivo, mouse
Details: IV SCET
Experimental: […] Each lung was placed in a labeled container with 1 ml PBS. The lungs were then sonicated for 10 seconds by the Sonic Dismembrinator 60 (Fisher Scientific) to lyse the Sertoli cells and release the curcumin nanoparticles. The curcumin was then separated from the nanoparticles by adding 500 μl DMSO to each container. The suspension was then centrifuged at 1200 rpm for 10 minutes and the supernatant was collected. A UV spectrum was collected from each supernatant sample.
In addition to normal mice, some female C57BL/6 and BALB/c mice were sensitized by intraperitoneal injection (i.p.) of 10 μl ovalbumin (OVA) with alum as previously described to mimic acute allergic asthma (Weggman, M. Animal models of chronic experimental asthma—strategies for the identification of new therapeutic targets. Occup Med Toxicol. 3 (Suppl 1) (2008); Temelkovski J, Hogan S P, Shepherd D P, Foster P S, Kumar R K. An improved murinemodel of asthma: selective airway inflammation, epithelial lesions and increased methacholine responsiveness following chronic exposure to aerosolised allergen. Thorax. 10, 849-56 (1998)). The mice were challenged weekly for 3 weeks with an intranasal injection (i.n.) of 25 μl OVA (20 mg/ml). One hour after the last i.n. challenge, the treatment group (n=7) was injected via the tail vein with pre-loaded, pre-labeled SCET (8×10^6) that contained nanoparticles coupled with […] curcumin dose. Others asthmatic mice were not injected with SCET to serve as untreated controls (n=6). […]
Each lung was placed in a labeled container with 1 ml PBS. The lungs were then sonicated for 10 seconds by the Sonic Dismembrinator 60 (Fisher Scientific) to lyse the Sertoli cells and release the curcumin nanoparticles. The curcumn was then separated from the nanoparticles by adding 500 μl DMSO to each container. The suspension was then centrifuged at 1200 rpm for 10 minutes and the supernatant was collected. A UV spectrum was collected from each supernatant sample. Data was presented for absorbance assays of Sertoli cells, nanoparticles and curcumin from all samples from all mice, including a sample of the nanoparticle pre-loaded, pre-labeled SC injectable (8×10^6) were replicated and the mean values of SCs, nanoparticles and curcumin were expressed as a percentage of the mean value determined in the pre-loaded, pre-labeled Sertloli cell injectable (8×10^6)

COc1cc(/C=C/C(=O)CC(=O)/C=C/c2ccc(O)c(OC)c2)ccc1O [curcumin]
80%: percentage of injected curcumin load present in the lungs (15 minutes post-injection) | delivery of curcumin throughout the pulmonary tissue (time not stated) | percentage of total curcumin in the injected SCET found in the lungs (asthmatic mice, 25 hours following injection) | percentage of injected curcumin load present in the lungs (asthmatic mice, one hour post-injection)
